Like-named read-outs stand apart in the source and are kept apart here.
Experiments:
[1] = tested on: Key Broadleaf Weed and Crop Species; assay: Post-emergent Test II herbicidal activity (Table 5); type: in vivo; conditions: post-emergence, 336 h, 14 days after application; for pest or weed control at 70 g/ha: application rate 70 g ai/ha; for pest or weed control at 140 g/ha: application rate 140 g ai/ha
How it was run: (§1)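 Scoring: visual, 0–100% injury at 14 d versus untreated. Treatment: overhead track spray, 187 L/ha, onto plants at the first–second true leaf stage. Growth: greenhouse, ~15 h light, 23–29 °C day, 22–28 °C night.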

[2] = tested on: Key Grass and Sedge Weeds as well as Grass Crops; assay: Post-emergent Test II herbicidal activity (Table 6); type: in vivo; conditions: post-emergence, 336 h; for pest or weed control at 70 g/ha: 70 g ai/ha; for pest or weed control at 140 g/ha: 140 g ai/ha
How it was run: as §1

[3] = ABUTH: velvetleaf (Abutilon theophrasti), read-out: Visual Growth Reduction (%) 14 Days After Application, ABUTH
[4] = AMARE: redroot pigweed (Amaranthus retroflexus), read-out: Visual Growth Reduction (%) 14 Days After Application, AMARE
[5] = BRSNN: oilseed-rape, canola (Brassica napus), read-out: Visual Growth Reduction (%) 14 Days After Application, BRSNN
[6] = CHEAL: lambsquarters (Chenopodium album), read-out: Visual Growth Reduction (%) 14 Days After Application, CHEAL
[7] = EPHHL: wild poinsettia (Euphorbia heterophylla), read-out: Visual Growth Reduction (%) 14 Days After Application, EPHHL
[8] = HELAN: sunflower (Helianthus annuus), read-out: Visual Growth Reduction (%) 14 Days After Application, HELAN
[9] = VIOTR: wild pansy (Viola tricolor), read-out: Visual Growth Reduction (%) 14 Days After Application, VIOTR
[10] = CYPES: yellow nutsedge (Cyperus esculentus), read-out: Visual Growth Reduction (%) 14 Days After Application, CYPES
[11] = DIGSA: crabgrass (Digitaria sanguinalis), read-out: Visual Growth Reduction (%) 14 Days After Application, DIGSA
[12] = ECHCG: barnyardgrass (Echinochloa crus-galli), read-out: Visual Growth Reduction (%) 14 Days After Application, ECHCG
[13] = ORYSA: rice (Oryza sativa), crop, read-out: Visual Growth Reduction (%) 14 Days After Application, ORYSA
[14] = SETFA: giant foxtail (Setaria faberi), read-out: Visual Growth Reduction (%) 14 Days After Application, SETFA
[15] = SORVU: grain sorghum (Sorghum vulgare), read-out: Visual Growth Reduction (%) 14 Days After Application, SORVU
[16] = TRZSS (wheat, Triticum aestivum), crop, read-out: Visual Growth Reduction (%) 14 Days After Application, TRZSS
[17] = ZEAMX: maize, corn (Zea mays), crop, read-out: Visual Growth Reduction (%) 14 Days After Application, ZEAMX

Work on N#Cc1ccc(-c2nc(C(=O)O)c(Cl)c(N)c2F)cc1F [Compound 156] yielded a pest or weed control at 70 g/ha [1, 3] of 60 to 74%, a pest or weed control at 140 g/ha [1, 3] of 75 to 84% and a pest or weed control at 70 g/ha [1, 4] of 95 to 100%. The pest or weed control at 140 g/ha [1, 4] was 95 to 100%, the pest or weed control at 70 g/ha [1, 5] was 75 to 84% and the pest or weed control at 140 g/ha [1, 5] was 85 to 94%. The pest or weed control at 70 g/ha [1, 6] was 95 to 100%, the pest or weed control at 140 g/ha [1, 6] was 95 to 100% and the pest or weed control at 70 g/ha [1, 7] was 85 to 94%. The pest or weed control at 140 g/ha [1, 7] was 85 to 94%, the pest or weed control at 70 g/ha [1, 8] was 95 to 100% and the pest or weed control at 140 g/ha [1, 8] was 95 to 100%. The pest or weed control at 70 g/ha [1, 9] was 60 to 74%, the pest or weed control at 140 g/ha [1, 9] was 60 to 74% and the pest or weed control at 70 g/ha [2, 10] was 60 to 74%. The pest or weed control at 140 g/ha [2, 10] was 85 to 94%, the pest or weed control at 70 g/ha [2, 11] was 60 to 74% and the pest or weed control at 140 g/ha [2, 11] was 75 to 84%. The pest or weed control at 70 g/ha [2, 12] was 75 to 84%, the pest or weed control at 140 g/ha [2, 12] was 85 to 94% and the pest or weed control at 70 g/ha [2, 13] was 0 to 29%. For the same compound, the pest or weed control at 140 g/ha [2, 13] was 0 to 29%, the pest or weed control at 70 g/ha [2, 14] was 85 to 94% and the pest or weed control at 140 g/ha [2, 14] was 95 to 100%. It also gave a pest or weed control at 70 g/ha [2, 15] of 60 to 74%, a pest or weed control at 140 g/ha [2, 15] of 60 to 74% and a pest or weed control at 70 g/ha [2, 16] of 45 to 59%. It also gave a pest or weed control at 140 g/ha [2, 16] of 60 to 74%, a pest or weed control at 70 g/ha [2, 17] of 75 to 84% and a pest or weed control at 140 g/ha [2, 17] of 75 to 84%.

— patent publication US9113629B2, “4-amino-6-(4-substituted-phenyl)-picolinates and 6-amino-2-(4-substituted-phenyl)-pyrimidine-4-carboxylates and their use as herbicides” (DOW AGROSCIENCES LLC, priority 2013, dated 2015)
